Article PMC12627627 (Nature Communications, 2025)

Tests used:
Assay type in all cases: binding
R12 domain of RyR1 = molecular target: T1, R12 domain of RyR1 (Homo sapiens, UniProt P21817); assay: ITC, R12 domain of RyR1; conditions: AMP-PCP or ADP alone, without DAN/AZU (Supplementary Fig. 1)
T1 construct: RyR1 854–1054, RyR2 865–1065, RyR3 853–1053; made in house; host or cells: E. coli BL21 (DE3)
T1 sequence (P21817 854-1054): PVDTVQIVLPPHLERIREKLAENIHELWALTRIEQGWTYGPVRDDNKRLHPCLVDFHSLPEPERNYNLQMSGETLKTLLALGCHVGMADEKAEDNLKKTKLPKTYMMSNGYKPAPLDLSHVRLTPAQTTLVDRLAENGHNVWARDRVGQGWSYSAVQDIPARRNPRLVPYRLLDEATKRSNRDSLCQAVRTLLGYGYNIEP
Method: (§1) The plasmids were subsequently transformed into E. coli BL21 (DE3) cells (NEB, USA) and cultured in Luria-Bertani (LB) media at 37 °C. Protein expression was induced with 0.4 mM isopropyl β-D-thiogalactoside (IPTG) when the optical density (OD)600 reached ~0.8, followed by incubation at 18 °C for 12 h. The cells were harvested via centrifugation at 5,000 × g for 15 min at 4 °C and homogenized in Buffer A (10 mM HEPES, pH 7.4, 250 mM KCl) supplemented with 25 µg/mL DNaseI, 25 µg/mL lysozyme, 1 mM phenylmethylsulfonyl fluoride (PMSF), and 20 mM imidazole. The homogenate was centrifuged at 12,000 × g for 45 min, and the supernatant was filtered through a syringe filter (0.22 µm).
(§2) Purified R12 domain protein from the three RyR isoforms, fused with hexahistidine-tagged MBP (HMT-R12) was dialyzed overnight at 4 °C in ITC buffer (200 mM HEPES, pH 7.4, 150 mM KCl). ITC experiments were performed using a PEAQ-ITC instrument (Malvern, UK) at 25 °C with a stirring speed of 750 rpm. […] For the ternary binding experiments, 500 μM or 5 mM AMP-PCP/ADP was preincubated with both the titrants and titrates. […] The data was fit to a one-site fitting model after background buffer subtraction. The RyR1 R12 mutants were generated using a QuikChange mutagenesis kit (Stratagene) according to the manufacturer’s protocol, with primer sequences listed in Supplementary Table 3.

R12 domain of RyR3 = molecular target: T2, R12 domain of RyR3 (Homo sapiens, UniProt Q15413); assay: ITC, R12 domain of RyR3
T2 construct: RyR1 854–1054, RyR2 865–1065, RyR3 853–1053; made in house; host or cells: E. coli BL21 (DE3)
T2 sequence (Q15413 853-1053): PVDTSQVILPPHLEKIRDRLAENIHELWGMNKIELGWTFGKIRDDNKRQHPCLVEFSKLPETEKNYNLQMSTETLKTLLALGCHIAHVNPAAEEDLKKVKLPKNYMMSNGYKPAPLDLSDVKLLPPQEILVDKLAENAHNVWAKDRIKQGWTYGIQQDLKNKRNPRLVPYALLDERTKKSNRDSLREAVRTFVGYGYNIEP
Method: as §1, §2

R12 domain of RyR2 = molecular target: T3, R12 domain of RyR2 (Homo sapiens, UniProt Q92736); assay: ITC, R12 domain of RyR2; conditions: absence or presence of AMP-PCP or ADP
T3 construct: RyR1 854–1054, RyR2 865–1065, RyR3 853–1053; made in house; host or cells: E. coli BL21 (DE3)
T3 sequence (Q92736 865-1065): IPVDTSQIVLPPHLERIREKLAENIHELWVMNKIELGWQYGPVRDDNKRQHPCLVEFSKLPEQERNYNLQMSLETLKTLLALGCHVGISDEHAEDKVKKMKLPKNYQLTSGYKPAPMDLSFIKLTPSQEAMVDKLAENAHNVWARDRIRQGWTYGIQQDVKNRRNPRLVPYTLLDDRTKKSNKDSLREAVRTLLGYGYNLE
Method: as §1, §2

Nc1ncnc2c1ncn2[C@@H]1O[C@H](COP(=O)(O)OP(=O)(O)O)[C@@H](O)[C@H]1O [ADP]
binding of nucleotide alone by ITC (R12 domain of RyR1): did not exhibit detectable binding

Nc1ncnc2c1ncn2[C@@H]1O[C@H](COP(=O)(O)OP(=O)(O)CP(=O)(O)O)[C@@H](O)[C@H]1O [AMP-PCP]
binding of nucleotide alone by ITC (R12 domain of RyR1): did not exhibit detectable binding

O=C1CN(/N=C/c2ccc(-c3ccc([N+](=O)[O-])cc3)o2)C(O)=N1 [DAN, Dantrolene]
Kd (R12 domain of RyR3; RyR3 R12 + 500 µM ADP): 259 ± 31 nM | No of Sites (N) (R12 domain of RyR3; RyR3 R12 + 500 µM ADP): 0.461 ± 0.26 | ΔH (R12 domain of RyR3; RyR3 R12 + 500 µM ADP): -5.53 ± 0.34 kcal/mol | −TΔS (R12 domain of RyR3; RyR3 R12 + 500 µM ADP): -3.46 kcal/mol | Kd (R12 domain of RyR3; RyR3 R12 + 500 µM AMP-PCP): 72 ± 20 nM | No of Sites (N) (R12 domain of RyR3; RyR3 R12 + 500 µM AMP-PCP): 0.726 ± 0.53 | ΔH (R12 domain of RyR3; RyR3 R12 + 500 µM AMP-PCP): -8.63 ± 0.14 kcal/mol | −TΔS (R12 domain of RyR3; RyR3 R12 + 500 µM AMP-PCP): -1.11 kcal/mol | Kd (R12 domain of RyR3; RyR3 R12 + 5 mM ADP): 60 ± 9 nM | No of Sites (N) (R12 domain of RyR3; RyR3 R12 + 5 mM ADP): 0.606 ± 0.23 | ΔH (R12 domain of RyR3; RyR3 R12 + 5 mM ADP): -8.21 ± 0.75 kcal/mol | −TΔS (R12 domain of RyR3; RyR3 R12 + 5 mM ADP): -1.64 kcal/mol | Kd (R12 domain of RyR3; RyR3 R12 + 5 mM AMP-PCP): 26 ± 10 nM | No of Sites (N) (R12 domain of RyR3; RyR3 R12 + 5 mM AMP-PCP): 0.842 ± 0.36 | ΔH (R12 domain of RyR3; RyR3 R12 + 5 mM AMP-PCP): -8.07 ± 0.10 kcal/mol | −TΔS (R12 domain of RyR3; RyR3 R12 + 5 mM AMP-PCP): -2.27 kcal/mol | No of Sites (N) (R12 domain of RyR3; RyR3 R12, no nucleotide): 0.651 ± 0.11 | ΔH (R12 domain of RyR3; RyR3 R12, no nucleotide): -80 kcal/mol | −TΔS (R12 domain of RyR3; RyR3 R12, no nucleotide): 75.60 kcal/mol | Kd (R12 domain of RyR3; RyR3 R12, no nucleotide, ITC 25 °C): 235000 ± 122000 nM | binding to RyR2 R12 domain by ITC (R12 domain of RyR2): neither DAN nor AZU exhibited detectable binding
